Data reported in PMC9530963, “A cathelicidin antimicrobial peptide from Hydrophis cyanocinctus inhibits Zika virus infection by downregulating expression of a viral entry factor” (The Journal of Biological Chemistry, 2022).

Assays:
COX-2 = COX-2 protein level in A549 cells (Western blot); type: cell-based, Homo sapiens; conditions: A549 cells, 1.25, 2.5, or 5 μM, 24 h
Procedure: Figure 6 Hc-CATH downregulates AXL via inhibiting COX-2/PGE2/AC/PKA pathway.A, effect of Hc-CATH on COX-2 protein level. A549 cells were incubated with Hc-CATH (1.25, 2.5, or 5 μM) or PBS (solvent of Hc-CATH) at 37 °C for 24 h, COX-2 protein level was examined by Western blot (upper panel) and analyzed by ImageJ (lower panel). B, effect of Hc-CATH on the enzymatic activity of COX-2. Hc-CATH (1.25, 2.5, 5, and 10 μM) or PBS was incubated with COX-2. After incubation at 37 °C for 10 min, the enzymatic activity of COX-2 was detected by enzyme activity inhibitor screening kit. Celecoxib (COX-2 inhibitor, 100 nM) was used as positive control. C, effect of Hc-CATH on PGE2 production. A549 cells were incubated with Hc-CATH (5 μM) at 37 °C. After incubation for 24 h, the level of PGE2 in the cell supernatant was detected by ELISA. D and E, effect of AC (D) and PKA (E) on Hc-CATH-induced AXL downregulation. A549 cells were incubated with forskolin (FSK, agonist of AC, 10 μM) or H89 (inhibitor of PKA, 5 μM) at 37 °C. After incubation for 1 h, the culture media were removed, cells were washed three times with PBS, and fresh culture media were added to cells in the presence of Hc-CATH (5 μM). After incubation for 24 h, AXL protein level was examined by Western blot (upper panel of D and E) and analyzed by ImageJ (lower panel of D and E). ns, not significant, ∗∗p < 0.01, and ∗∗∗p < 0.001. […]

ZIKV [1] = assay: Direct inactivation of ZIKV particles (virus pre-incubated with peptide); type: cell-based, ZIKV strain PRVABC59; conditions: ZIKV incubated with 2.5 μM peptide at 37 °C for 2 h, pelleted, added to Vero cells, 48 h; RNA, NS3, E protein, titer
Procedure: Figure 8 Hc-CATH directly inactivates ZIKV particles by disrupting viral membrane.A, schematic diagram of B–G (Hc-CATH-Vero-pre). B–G, direct inactivation of ZIKV by Hc-CATH. ZIKVs (MOI = 1) were incubated with Hc-CATH (2.5 μM), AC5 (2.5 μM), LL-37 (2.5 μM), or PBS (peptide solvent) at 37 °C for 2 h, and then the ZIKV–PBS mixture and ZIKV–peptide mixture were centrifugated at 100,000g for 70 min. The pellets were washed with PBS and centrifugated at 100,000g for 70 min again. The pellets were resuspended in PBS, added to Vero cells, and incubated for 2 h. Cells were washed with PBS and cultured in fresh DMEM containing 2% FBS. After culture at 37 °C for 48 h, the intracellular ZIKV RNA (B), NS3 protein (C and D), E protein level (E, the scale bar represents 50 μm), and extracellular ZIKV titer (F and G) were tested by qPCR, Western blot, immunofluorescence staining, and plaque-forming assay, respectively. H, binding of Hc-CATH to ZIKV. High-affinity binding plates were coated with 0.25 μM of Hc-CATH, BSA, AC5, or LL-37. Then, 1 × 10^6 PFU of ZIKV was added and incubated. […] Absorbance at 450 nm was measured after reactions were stopped using 0.5 M sulfuric acid. […] After the residual RNase was inactivated, the undigested genomic RNA in the intact ZIKV particles was extracted and quantified by testing the genes of PrM, E, and Cap proteins, respectively. ∗∗p < 0.01 and ∗∗∗p < 0.001. […]

ZIKV [2] = assay: Leakage of ZIKV genomic RNA (micrococcal nuclease digestion); design: species or system ZIKV strain PRVABC59; conditions: 1, 20, and 40 μM, 37 °C 2 h; micrococcal nuclease 37 °C 4 h; qPCR of PrM, E, Cap
Procedure: Figure 8 Hc-CATH directly inactivates ZIKV particles by disrupting viral membrane.A, schematic diagram of B–G (Hc-CATH-Vero-pre). B–G, direct inactivation of ZIKV by Hc-CATH. ZIKVs (MOI = 1) were incubated with Hc-CATH (2.5 μM), AC5 (2.5 μM), LL-37 (2.5 μM), or PBS (peptide solvent) at 37 °C for 2 h, and then the ZIKV–PBS mixture and ZIKV–peptide mixture were centrifugated at 100,000g for 70 min. The pellets were washed with PBS and centrifugated at 100,000g for 70 min again. The pellets were resuspended in PBS, added to Vero cells, and incubated for 2 h. Cells were washed with PBS and cultured in fresh DMEM containing 2% FBS. […] Absorbance at 450 nm was measured after reactions were stopped using 0.5 M sulfuric acid. […] After the residual RNase was inactivated, the undigested genomic RNA in the intact ZIKV particles was extracted and quantified by testing the genes of PrM, E, and Cap proteins, respectively. ∗∗p < 0.01 and ∗∗∗p < 0.001.
For assay of the disruption of viral membrane by Hc-CATH, ZIKV (about 10^5 PFU) was incubated with Hc-CATH (1, 20, and 40 μM), PBS, or 1% Triton X-100 (positive control) at 37 °C for 2 h. […] The residual RNase was inactivated, the undigested genomic RNA in the intact ZIKV particles was extracted and quantified by testing viral genes encoding membrane protein (PrM), E protein, and capsid (Cap) protein, respectively ([43]).

Sequence: KFFKRLLKSVRRAVKKFRKKPRLIGLSTLL [Hc-CATH, cathelicidin antimicrobial peptide identified from the sea snake Hydrophis cyanocinctus]
- expression of COX-2 (COX-2): did not influence the expression of COX-2
- direct inactivation of ZIKV particles (ZIKV [1]): directly inactivated viral particles
- genomic RNA of peptide-treated virions (leakage) (ZIKV [2]): digested by micrococcal nuclease
